{
  "source": "patent US12144791B2",
  "about": "“KRAS agonists, pharmaceutical compositions, and uses in managing cancer” (Emory University, priority 2019, dated 2024)",
  "key": {"KRAS K117A": {"biological_target": "T1, KRAS K117A (Homo sapiens, UniProt P01116, K117A)", "T1 construct": "made in house", "experiment": "Thermal shift assay, purified KRAS K117A", "format": "binding", "description": "Melting temperature (Tm) values of DMSO control and 15 μM KRA-533 are shown.\n(§1) To further test this intracellularly, GFP-tagged WT, S17A, K117A and AA KRAS mutants were exogenously transfected into A549 cells. […] Activities of exogenous GFP-tagged WT and KRAS mutants were analyzed by Western blot using GFP antibody."}, "A549 cells": {"system": "A549 cells", "experiment": "Apoptotic and autophagic cell death after KRAS shRNA knockdown", "format": "cell-based, human", "settings": "G12S mutant KRAS depleted by KRAS shRNA; 15 μM, 48 h", "description": "To further test whether KRAS is a required target for KRA-533 to induce apoptotic and autophagic cell death, G12S mutant KRAS was depleted using KRAS shRNA from A549 cells, followed by treatment with KRA-533 (15 μM) for 48 h."}, "[1]": {"system": "A549, H157, Calu-1 and H292 cells", "experiment": "Western blot of pERK, apoptosis and autophagy markers in total lysate", "format": "cell-based, human", "settings": "0, 5, 10, 15 μM, 48 h", "description": "“0” means DMSO vehicle control. […] Expression levels of KRAS, pERK, active caspase 3, PARP cleavage, Beclin1, LC3-I and LC3-II in total lysate were analyzed by Western blot.\n(§2) Activated KRAS can trigger cell death via apoptosis and autophagy-associated cell death in cancer cells. To test whether KRA-533- activated KRAS promotes apoptosis and autophagic cell death, A549, H157, Calu-1 and H292 cells were treated with increasing concentrations of KRA-533 for 48 h, followed by analysis of KRAS activity, apoptosis and autophagy. […] Autophagy was measured by analysis of LC3-I/LC3-II and p62 following treatment of cells with KRA-533. It is well known that p62 is an autophagy receptor or substrate that can be degraded by autophagy. In addition to LC3-II, p62 was analyzed as another autophagy marker. […] To further quantify the level of autophagy, a GFP-LC3 construct was used to indicate autophagosomes. After treatment with KRA-533, GFP-LC3 redistributed from a diffuse staining pattern in the cytoplasm and nucleus to a cytoplasmic punctate structure that specifically labels pre-autophagosomal and autophagosomal membranes (i.e. GFP-LC3 vac cells). […] These findings indicate that, in addition to apoptosis, KRA-533 can also induce autophagic cell death."}, "WT KRAS": {"biological_target": "WT KRAS (Homo sapiens, UniProt P01116)", "experiment": "In vitro cell-free GDP-GTP exchange, WT KRAS", "format": "biochemical", "settings": "with GEF (RASGRP1) and GAP (RASA1), 25° C., 60 min", "description": "GTPγS, purified GFP (RASGRP1, 180 nM) and GAP (RASA1, 180 nM) at 25° C. in the presence or absence of increasing concentrations of KRA-533.\nGTPγS, purified GFP (RASGRP1, 180 nM) and GAP (RASA1, 180 nM) at 25° C. in the presence or absence of 15 μM KRA-533. The radioactivity remaining on the protein after intensive washing was quantified by liquid scintillation.\n(§3) To test whether KRA-533 directly binds to KRAS, a thermal shift assay was employed. […] To further assess whether KRA-533 activates KRAS directly, an in vitro cell-free GDP-GTP exchange experiment was carried out. Purified WT, G12C, G12D or G13D mutant KRAS proteins were incubated with purified GEF (RASGRP1) and GAP (RASA1) proteins in reaction buffer containing [γ-35S]-GTP in the absence or presence of increasing concentrations of KRA-533 at 25° C. for 60 min. KRAS activity was quantified by liquid scintillation counting. […] These findings indicate that KRA-533 not only activates WT KRAS but also has the capacity to further enhance KRAS activity of mutant KRAS.\nas §1"}, "KRAS G13D": {"biological_target": "KRAS G13D (Homo sapiens, UniProt P01116, G13D)", "experiment": "Thermal shift assay, purified KRAS G13D", "format": "binding", "settings": "increasing concentrations", "description": "Melting temperature (Tm) values of DMSO Ctrl and 15 μM of KRA-533 are shown.\nas §3"}, "[2]": {"system": "G12D mutant KRAS-driven lung cancer", "experiment": "Genetically engineered LSL-KRASG12D mouse lung cancer model", "format": "in vivo", "text": "Tumor numbers were counted under the microscope and tumor area was quantified using modular imaging software.\nKRAS mutations are common genetic alterations in NSCLC and contribute to the resistance of lung cancer to conventional therapy. To test the potency of KRA-533 in mutant KRAS-driven lung cancer, lox-stop-lox (LSL)-KRASG12D mice were generated. By engineering LoxP DNA elements into the mouse genome that surround a synthetic ‘stop’ element (lox-stop-lox) inserted in front of mutant KRAS G12D, one can ‘turn-on’ mutant KRAS G12D with delivery of Cre recombinase. To control the expression of KRAS G12D, a LSL cassette was engineered into the first intron of the KRAS gene. The LSL cassette consists of transcriptional and translational stop elements flanked by LoxP sites that prevent the expression of the mutant allele until the stop elements are removed by the activity of Cre recombinase. To produce KRAS G12D mutant-driven lung cancer, alleles were induced in mouse lung using intranasal administration of a lentiviral Cre recombinase. Primary lung tumors developed around 12 weeks post-inoculation.\nTo assess whether KRA-533 has antitumor activity against G12D mutant KRAS-driven lung cancer in genetically engineered mouse models, KRA-533 (20 mg/kg/d) or vehicle control was administered i.p. starting at 10 weeks post AdeCre delivery. After treatment for 3 months, mice were euthanized for analysis of tumor burden. […] There were 3 deaths out of 8 mice in the control group versus 1 death out of 8 mice in the KRA-533 treatment group in four months before euthanization."}, "[3]": {"system": "A549, H157, Calu-1 and H292 cells", "experiment": "Apoptosis by FACS analysis of Annexin V/PI staining", "format": "cell-based, human", "description": "as §2"}},
  "note": "Entries after “also recorded” stand apart in the source; their conditions may differ.",
  "data": [
    {"compound": "O=C(CBr)NCCCCc1ccc(C(=O)O)cc1", "note": "[KRA-533, 4-(4-(2-bromoacetamido)butyl)benzoic acid]", "values": [
      {"measurement": "binding (thermal shift), KRAS K117A", "setting": "KRAS K117A", "value": "failed to bind"},
      {"measurement": "cell sensitivity to apoptotic and autophagic cell death after knockdown of mutant KRAS", "setting": "A549 cells", "value": "significantly reduced cell sensitivity to the induction of apoptotic and autophagic cell death"},
      {"measurement": "LC3-II", "setting": "[1]", "value": "dose-dependent increase of LC3-II"},
      {"measurement": "PARP cleavage", "setting": "[1]", "value": "increased"},
      {"measurement": "levels of pERK", "setting": "[1]", "value": "increased levels"},
      {"measurement": "p62", "setting": "[1]", "value": "dose-dependent decrease of p62"},
      {"measurement": "ratio of active caspase 3/procaspase 3", "setting": "[1]", "value": "increased"},
      {"measurement": "KRAS activity (liquid scintillation), WT KRAS", "setting": "WT KRAS", "value": "activated WT KRAS to increase its activity in a dose-dependent manner; also recorded: directly activated"},
      {"measurement": "melting temperature (Tm) / binding, KRAS G13D", "setting": "KRAS G13D", "value": "Dose dependent increases in melting temperature (Tm)"},
      {"measurement": "deaths in four months before euthanization", "setting": "[2]; 20 mg/kg/d i.p.", "value": "1 death out of 8 mice"},
      {"measurement": "weight loss and normal tissue toxicity", "setting": "[2]; 20 mg/kg/d i.p.", "value": "Slight weight loss but no significant normal tissue toxicity"},
      {"measurement": "tumor burden and multiplicity in the lung", "setting": "[2]; 20 mg/kg/d i.p. from 10 weeks post AdeCre, four months", "value": "significant reduction of tumor burden and multiplicity in the lung"},
      {"measurement": "survival", "setting": "[2]; 20 mg/kg/d i.p., compared with the control group", "value": "prolonged survival"},
      {"measurement": "apoptotic cell death (Annexin V/PI)", "setting": "[3]; 0, 5, 10, 15 μM, 48 h", "value": "leading to apoptotic cell death"},
      {"measurement": "sensitivity to KRAS activation, induction of apoptosis and autophagy, KRAS mutant cells versus H292", "setting": "[3]; A549, H157 and Calu-1 vs H292, 48 h", "value": "significantly more sensitive than H292 cells without KRAS mutation"}
    ]}
  ]
}
